From patent publication US20240150423A1, “GLP-1 ANALOGUE-MODIFIED DIMERS WITH DIFFERENT CONFIGURATIONS, PREPARATION METHOD THEREOF, AND APPLICATION THEREOF IN TREATMENT OF TYPE II DIABETES” (Nanjing Finepeptide Biopharmaceutical Co.,Ltd, priority 2019, published 2024)
Non-standard residues stand in square brackets, D forms with d. No end group written: not given here. Aib = CC(C)(N)C(=O)O

System: Normal Kunming (KM) mice
Assay: multiple OGTT (mOGTT): hypoglycemic duration after a single administration
Type: in vivo
Settings: monomeric peptides, single injection at the same dose (1.126 nmol), subcutaneous
How it was run: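 Single administration in normal Kunming mice, followed by oral glucose loading with tail-vein glucose sampled at 0–120 min (0, 10, 20, 40, 60, 120 min). Effective duration ended once mean glucose exceeded the NaCl control group on two occasions.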

Row | Substance | Hypoglycemic | Hypoglycemic (day)
1 | His-Ala-Glu-Gly-Thr-Phe-Thr-Ser-Asp-Val-Ser-Cys-Tyr-Leu-Glu-Gly-Gln-Ala-Ala-Lys[N-ϵ-(N-α-oleoyl)]-Glu-Phe-Ile-Ala-Trp-Leu-Val-Arg-Gly-Arg-Gly-OH (HAEGTFTSDVSCYLEGQAAXEFIAWLVRGRG; not fully specified; oleoyl on Lys; C-terminal acid; Sequence is synthesized; (20)..(20) Xaa is 26Lys[N-e-(N-a-oleoyl-L-g-glutamyl)]; (31)..(31) C-terminal) [G4 series 32] | 5 days | –
2 | His-Ala-Glu-Gly-Thr-Phe-Thr-Ser-Asp-Val-Ser-Cys-Tyr-Leu-Glu-Gly-Gln-Ala-Ala-Lys[N-ϵ-(N-α-oleoyl-L-γ-glutamyl)]-Glu-Phe-Ile-Ala-Trp-Leu-Val-Arg-Gly-Arg-Gly-OH (HAEGTFTSDVSCYLEGQAAXEFIAWLVRGRG; oleoyl-γ-glutamyl on Lys; C-terminal acid; Sequence is synthesized; (20)..(20) Xaa is 26Lys[N-e-(N-a-oleoyl-L-g-glutamyl)]; (31)..(31) C-terminal) [G3 series 21] | 4 days | –
3 | His-Ala-Glu-Gly-Thr-Phe-Thr-Ser-Asp-Val-Ser-Ser-Tyr-Leu-Glu-Gly-Gln-Ala-Ala-Lys[N-ϵ-(N-α-Palmitoyl-γ-glutamyl)]-Glu-Phe-Ile-Ala-Trp-Leu-Val-Arg-Gly-Arg-Gly-Cys-OH (HAEGTFTSDVSSYLEGQAAXEFIAWLVRGRGC; palmitoyl-γ-glutamyl on Lys; C-terminal acid; Sequence is synthesized; (20)..(20) Xaa is 26Lys[N-e-(N-a-Palmitoyl-g-glutamyl)]; (32)..(32) C-terminal) [G1] | – | No hypoglycemic
4 | His-Ala-Glu-Gly-Thr-Phe-ThrCys-Asp-Val-Ser-Ser-Tyr-Leu-Glu-Gly-Gln-Ala-Ala-Lys[N-ϵ-(N-α-oleoyl-L-γ-glutamyl)]-Glu-Phe-Ile-Ala-Trp-Leu-Val-Arg-Gly-Arg-Gly-OH (HAEGTFTCDVSSYLEGQAAXEFIAWLVRGRG; oleoyl-gamma-Glu on Lys; C-terminal acid; Sequence is synthesized; (20)..(20) Xaa is 26Lys[N-e-(N-a-oleoyl-L-g-glutamyl)]; (31)..(31) C-terminal) [G8 series 58] | 1 days | –
5 | His-aAib-Glu-Gly-Thr-Phe-Thr-Cys-Asp-Val-Ser-Ser-Tyr-Leu-Glu-Gly-Gln-Ala-Ala-Lys-Glu-Phe-Ile-Ala-Trp-Leu-Val-Arg-aAib-Arg-NH2 (H[Aib]EGTFTCDVSSYLEGQAAKEFIAWLVR[Aib]R-NH2; N-terminus assumed; SMILES CC[C@H](C)[C@H](NC(=O)[C@H](Cc1ccccc1)NC(=O)[C@H](CCC(=O)O)NC(=O)[C@H](CCCCN)NC(=O)[C@H](C)NC(=O)[C@H](C)NC(=O)[C@H](CCC(N)=O)NC(=O)CNC(=O)[C@H](CCC(=O)O)NC(=O)[C@H](CC(C)C)NC(=O)[C@H](Cc1ccc(O)cc1)NC(=O)[C@H](CO)NC(=O)[C@H](CO)NC(=O)[C@@H](NC(=O)[C@H](CC(=O)O)NC(=O)[C@H](CS)NC(=O)[C@@H](NC(=O)[C@H](Cc1ccccc1)NC(=O)[C@@H](NC(=O)CNC(=O)[C@H](CCC(=O)O)NC(=O)C(C)(C)NC(=O)[C@@H](N)Cc1c[nH]cn1)[C@@H](C)O)[C@@H](C)O)C(C)C)C(=O)N[C@@H](C)C(=O)N[C@@H](Cc1c[nH]c2ccccc12)C(=O)N[C@@H](CC(C)C)C(=O)N[C@H](C(=O)N[C@@H](CCCNC(=N)N)C(=O)NC(C)(C)C(=O)N[C@@H](CCCNC(=N)N)C(N)=O)C(C)C) [G8 series 64] | 2 days | –
6 | His-aAib-Glu-Gly-Thr-Phe-Thr-Cys-Asp-Val-Ser-Ser-Tyr-Leu-Glu-Gly-Gln-Ala-Ala-Lys-Glu-Phe-Ile-Ala-Trp-Leu-Val-Lys-aAib-Arg-NH2 (H[Aib]EGTFTCDVSSYLEGQAAKEFIAWLVK[Aib]R-NH2; N-terminus assumed; SMILES CC[C@H](C)[C@H](NC(=O)[C@H](Cc1ccccc1)NC(=O)[C@H](CCC(=O)O)NC(=O)[C@H](CCCCN)NC(=O)[C@H](C)NC(=O)[C@H](C)NC(=O)[C@H](CCC(N)=O)NC(=O)CNC(=O)[C@H](CCC(=O)O)NC(=O)[C@H](CC(C)C)NC(=O)[C@H](Cc1ccc(O)cc1)NC(=O)[C@H](CO)NC(=O)[C@H](CO)NC(=O)[C@@H](NC(=O)[C@H](CC(=O)O)NC(=O)[C@H](CS)NC(=O)[C@@H](NC(=O)[C@H](Cc1ccccc1)NC(=O)[C@@H](NC(=O)CNC(=O)[C@H](CCC(=O)O)NC(=O)C(C)(C)NC(=O)[C@@H](N)Cc1c[nH]cn1)[C@@H](C)O)[C@@H](C)O)C(C)C)C(=O)N[C@@H](C)C(=O)N[C@@H](Cc1c[nH]c2ccccc12)C(=O)N[C@@H](CC(C)C)C(=O)N[C@H](C(=O)N[C@@H](CCCCN)C(=O)NC(C)(C)C(=O)N[C@@H](CCCNC(=N)N)C(N)=O)C(C)C) [G8 series 65] | 2 days | –
7 | His-aAib-Glu-Gly-Thr-Phe-Thr-Cys-Asp-Val-Ser-Ser-Tyr-Leu-Glu-Gly-Gln-Ala-Ala-Lys[N-ϵ-(N-α-Palmitoyl-γ-glutamyl)]-Glu-Phe-Ile-Ala-Trp-Leu-Val-Arg-Gly-Arg-Gly-NH2 (HXEGTFTCDVSSYLEGQAAXEFIAWLVRGRG; Aib; palmitoyl-gamma-Glu on Lys; C-terminal amide; Sequence is synthesized; (2)..(2) Xaa is aAib; (20)..(20) Xaa is 26Lys[N-e-(N-a-palmitoyl-L-g-glutamyl)]; (31)..(31) N-terminal) [G8 series 61] | 4 days | –
8 | His-aAib-Glu-Gly-Thr-Phe-Thr-Cys-Asp-Val-Ser-Ser-Tyr-Leu-Glu-Gly-Gln-Ala-Ala-Lys[N-ϵ-(N-α-Palmitoyl-γ-glutamyl)]-Glu-Phe-Ile-Ala-Trp-Leu-Val-Arg-Gly-Arg-Gly-OH (HXEGTFTCDVSSYLEGQAAXEFIAWLVRGRG; Aib; palmitoyl-gamma-Glu on Lys; C-terminal acid; Sequence is synthesized; (2)..(2) Xaa is aAib; (20)..(20) Xaa is 26Lys[N-e-(N-a-palmitoyl-L-g-glutamyl)]; (31)..(31) C-terminal) [G8 series 60] | 2 days | –
9 | His-aAib-Glu-Gly-Thr-Phe-Thr-Cys-Asp-Val-Ser-Ser-Tyr-Leu-Glu-Gly-Gln-Ala-Ala-Lys[N-ϵ-(N-α-oleoyl-L-γ-glutamyl)]-Glu-Phe-Ile-Ala-Trp-Leu-Val-Arg-Gly-Arg-Gly-NH2 (HXEGTFTCDVSSYLEGQAAXEFIAWLVRGRG; Aib; oleoyl-gamma-Glu on Lys; C-terminal amide; Sequence is synthesized; (2)..(2) Xaa is aAib; (20)..(20) Xaa is 26Lys[N-e-(N-a-oleoyl-L-g-glutamyl)]; (31)..(31) N-terminal) [G8 series 62] | 5 days | –
10 | His-aAib-Glu-Gly-Thr-Phe-Thr-Cys-Asp-Val-Ser-Ser-Tyr-Leu-Glu-Gly-Gln-Ala-Ala-Lys[N-ϵ-(N-α-oleoyl-L-γ-glutamyl)]-Glu-Phe-Ile-Ala-Trp-Leu-Val-Arg-Gly-Arg-Gly-OH (HXEGTFTCDVSSYLEGQAAXEFIAWLVRGRG; Aib; oleoyl-gamma-Glu on Lys; C-terminal acid; Sequence is synthesized; (2)..(2) Xaa is aAib; (20)..(20) Xaa is 26Lys[N-e-(N-a-oleoyl-L-g-glutamyl)]; (31)..(31) C-terminal) [G8 series 63] | 2 days | –
11 | His-aAib-Glu-Gly-Thr-Phe-Thr-Ser-Asp-Val-Cys-Ser-Tyr-Leu-Glu-Gly-Gln-Ala-Ala-Lys[N-ϵ-(N-α-Palmitoyl)]-Glu-Phe-Ile-Ala-Trp-Leu-Val-Arg-Gly-Arg-Gly-NH2 (HXEGTFTSDVCSYLEGQAAXEFIAWLVRGRG; αAib; palmitoyl on Lys; C-terminal amide; Sequence is synthesized; (2)..(2) Xaa is aAib; (20)..(20) Xaa is 26Lys[N-e-(N-a-palmitoyl-L-g-glutamyl)]; (31)..(31) N-terminal) [G4 series 28] | 7 days | –
12 | His-aAib-Glu-Gly-Thr-Phe-Thr-Ser-Asp-Val-Cys-Ser-Tyr-Leu-Glu-Gly-Gln-Ala-Ala-Lys[N-ϵ-(N-α-Palmitoyl-γ-glutamyl)]-Glu-Phe-Ile-Ala-Trp-Leu-Val-Arg-Gly-Arg-Gly-NH2 (HXEGTFTSDVCSYLEGQAAXEFIAWLVRGRG; αAib; palmitoyl-γ-glutamyl on Lys; C-terminal amide; Sequence is synthesized; (2)..(2) Xaa is aAib; (20)..(20) Xaa is 26Lys[N-e-(N-a-Palmitoyl-g-glutamyl)]; (31)..(31) N-terminal) [G2 series 12] | 6 days | –
13 | His-aAib-Glu-Gly-Thr-Phe-Thr-Ser-Asp-Val-Cys-Ser-Tyr-Leu-Glu-Gly-Gln-Ala-Ala-Lys[N-ϵ-(N-α-Palmitoyl-γ-glutamyl)]-Glu-Phe-Ile-Ala-Trp-Leu-Val-Arg-Gly-Arg-Gly-OH (HXEGTFTSDVCSYLEGQAAXEFIAWLVRGRG; αAib; palmitoyl-γ-glutamyl on Lys; C-terminal acid; Sequence is synthesized; (2)..(2) Xaa is aAib; (20)..(20) Xaa is 26Lys[N-e-(N-a-Palmitoyl-g-glutamyl)]; (31)..(31) C-terminal) [G2 series 11] | 4 days | –
14 | His-aAib-Glu-Gly-Thr-Phe-Thr-Ser-Asp-Val-Cys-Ser-Tyr-Leu-Glu-Gly-Gln-Ala-Ala-Lys[N-ϵ-(N-α-oleoyl)]-Glu-Phe-Ile-Ala-Trp-Leu-Val-Arg-Gly-Arg-Gly-NH2 (HXEGTFTSDVCSYLEGQAAXEFIAWLVRGRG; αAib; oleoyl on Lys; C-terminal amide; Sequence is synthesized; (2)..(2) Xaa is aAib; (20)..(20) Xaa is 26Lys[N-e-(N-a-oleoyl-L-g-glutamyl)]; (31)..(31) N-terminal) [G4 series 29] | 7 days | –
